Bounds are passed on as bounds.

One data set deals with potassium channels (Sus scrofa, UniProt F1SR11). The data set is described as follows: Functional potassium channel opening activity in isolated Landrace pig bladder strips (field-stimulated twitch). To be noted: for Landrace Pig Bladder Index: ED50 for P1075 divided by ED50 for the test agonist, averaged over tissues; for Landrace Pig Bladder pD2: negative logarithm of ED50; for Emax: pig. Here is the method:
The entire bladder was removed and ed into Krebs Ringer bicarbonate solution (composition, mM: NaCl,; dextrose, 1; KCl, 4.7; […] Propranolol (0.004 ed in all of the assays to block […]. The trigonal and dome […]. Strips 3-5 mm wide and 20 mm long were prepared from the cut in a circular fashion. The mucosal layer was removed. One end ationary glass rod and the other to a Grass FT03 transducer at a basal am. Two parallel platinum electrodes were included in the stationary ide field stimulation of 0.05Hz, 0.5 milli-seconds at 20 volts. […] Tissues were allowed to equilibrate for at least 60 minutes and primed with 80 mM KCl. A control concentration response curve (cumulative) was generated for each tissue using the potassium channel opener […] as the control agonist. […] After a 60 minute rinsing period, a concentration response curve (cumulative) was generated for the test agonist in the same fashion as that used for the control agonist […]. The maximal efficacy of each compound (expressed as % relative to […]) is reported. […] J. Physiol. 235, E97 (1980)), and agonist potencies were expressed as pD2 (the negative logarithm). Agonist potencies were also expressed as an index relative to […]. The index was calculated by dividing the ED50 for […] by the ED50 for the test agonist in a given tissue. Each tissue was used for only one test agonist, and the indices obtained from each tissue were averaged to provide an average index of potency.

Where [1] appears, read: maximal efficacy relative to P1075, field stimulation 0.05Hz, 0.5 milli-seconds at 20 volts.

A word on the melting point: it is the temperature of the solid-liquid transition. Compound `O=C1CCCC2=C1C(c1cccnc1)C1=C(CCS1(=O)=O)N2` (stereo not drawn) [Example 117, 9-(3-pyridinyl)-2,3,5,6,7,9-hexahydrothieno[3,2-b]quinolin-8(4H)-one, 1,1-dioxide] came in with a melting point greater than 250 °C.

As to `N#Cc1cc(C2C3=C(CCS3(=O)=O)NC3=C2S(=O)(=O)CC3)ccc1F` [Example 82], the melting point was 275 to 280 °C (dec.).

As to `O=C1CCC2=C1C(c1ccc(F)c(F)c1)C1=C(CCS1(=O)=O)N2` (stereo not drawn) [Example 79], the melting point was greater than 260 °C.

In the case of `CC1(C)CCC2=C(C1=O)C(c1ccc(Cl)c(Cl)c1)C1=C(CCS1(=O)=O)N2` (stereo not drawn) [Example 127, 9-(3,.4-dichlorophenyl)-7,7-dimethyl-2,3.5,.6,7,9-hexahydrothieno[3,*2-b Iquinolin-8(4H)-one, 1,1-dioxide], the melting point was 262 to 265 °C (dec.).

Regarding `O=C1CCCC2=C1C(c1ccc(Br)c(Br)c1)C1=C(CCS1(=O)=O)N2` (stereo not drawn) [Example 137, 9-(3 4-dibromophenyl)-2,3,5,6,79-hexahydrothieno[3,2-b]quinolin-8(4H)-one 1 1-dioxide], the melting point was greater than 250 °C.

In the case of `O=C1CCC2=C1C(c1cc(Br)cs1)C1=C(CCS1(=O)=O)N2` (stereo not drawn) [Example 67], the melting point was 254 to 255 °C.

`O=[N+]([O-])c1cccc(C2C3=C(CCCS3(=O)=O)NC3=C2S(=O)(=O)CCC3)c1` [Example 59, 3,4,6,7,8,10-hexahydro-10-(3-nitrophenyl)-2H,5H-dithiopyrano [3.2-b:2′,3′-e]pyridine, 1,1,9,9-tetraoxide] had a melting point greater than 260 °C.

Take `O=C1CCCC2=C1C(c1cc(Br)cs1)C1=C(CCS1(=O)=O)N2` (stereo not drawn) [Example 129, 9-(4-bromo-2-thienyl)-2,3,5,6,7,9-hexahydrothieno[3,2-b]quinolin-8(4H)-one, 1,1-dioxide]: the melting point was greater than 250 °C.

With `O=C1CCC2=C1C(c1ccc(Cl)c(F)c1)C1=C(CCS1(=O)=O)N2` (stereo not drawn) [Example 80], the melting point was greater than 260 °C.

For the compound `Cc1cc(C2C3=C(CCCC3=O)NC3=C2S(=O)(=O)CC3)ccc1F` (stereo not drawn) [Example 111, 9-(4-fluoro-3-methylphenyl)-2,3,5,6,7,9-hexahydrothieno[3,2-b]quinolin-8(4H)-one, 1,1-dioxide], the melting point was greater than 260 °C.

The compound `O=C1CCC2=C1C(c1ccc(Br)s1)C1=C(CCS1(=O)=O)N2` (stereo not drawn) [Example 68] returned a melting point of 246 to 247 °C.

In the case of `CC1(C)CCC(=O)C2=C1NC1=C(C2c2ccc(F)c(Br)c2)S(=O)(=O)CC1` (stereo not drawn) [Example 212], the melting point is greater than 270 °C.

For `O=S1(=O)CCC2=C1C(c1ccc(F)c(Cl)c1)C=C(C(F)(F)F)N2` (stereo not drawn) [Example 163, 7-(3-chloro-4-fluorophenyl)-5-(trifluoromethyl)-2,3,4,7-tetrahydrothieno[3,2-b]pyridine, 1,1-dioxide], the melting point was in the range of 180 to 183 °C.

`O=C1CCCC2=C1C(c1ccncc1)C1=C(CCS1(=O)=O)N2` (stereo not drawn) [Example 118, 9-(4-pyridinyl)-2,3.5,6,7,9-hexahydrothieno[3,2-b]quinolin-8(4H)-one, 1,1-dioxide] came in with a melting point greater than 250 °C.

For `O=C1CCCC2=C1C(c1ccc(F)c(C(F)(F)F)c1)C1=C(CCS1(=O)=O)N2` (single isomer, unassigned; (+)) [Example 138, (+)-9-[4-fluoro-3-(trifluoromethyl)phenyl]-2,3,5,6,7,9-hexahydrothieno[3,2-b]quinolin-8(4H)-one, 1,1-dioxide], the melting point was greater than 250 °C.

Compound `N#Cc1cccc(C2C3=C(CCC3=O)NC3=C2S(=O)(=O)CC3)c1` (single isomer, unassigned; (-)) [Example 162] had a melting point greater than 250 °C.

In turn, `N#Cc1ccc(C2C3=C(CCCC3=O)NC3=C2S(=O)(=O)CC3)s1` (stereo not drawn) [Example 175, 9-(5-cyano-2-thienyl)-2,3,5,6,7,9-hexahydrothieno[3,2-b]guinolin-8(4H)-one, 1,1-dioxide] displayed a melting point greater than 250 °C.

Turning to `O=C1CCC2=C1C(c1ccc(Cl)c([N+](=O)[O-])c1)C1=C(CCS1(=O)=O)N2` (single isomer, unassigned) [Example 160], the melting point was greater than 250 °C.

Take `O=C1CCC2=C1C(c1cccc([N+](=O)[O-])c1)C1=C(CCCS1(=O)=O)N2` (stereo not drawn) [Example 55, 3,4,5,6,7,9-hexahydro-9-(3-nitrophenyl)cyclopenta[b]thiopyrano [2,3-e]pyridin-8(2H)-one, 1,1-dioxide]: the melting point is greater than 260 °C.

Turning to `O=C1CCCC2=C1C(c1cc(Cl)ccc1O)C1=C(CCS1(=O)=O)N2` (stereo not drawn) [Example 120, 9-(5-chloro-2-hydroxyphenyl)-2,3,5,6,7,,9-hexahydrothieno[3 .2-b]guinolin-8(4H)-one, 1. I -dioxide], the melting point was greater than 250 °C.

Turning to `CC1=C(S(C)(=O)=O)C(c2ccc(Cl)c(Cl)c2)C2=C(CCC2=O)N1` (stereo not drawn) [Example 75, 4-(3,4-dichlorophenyl)-1,4,6,7-tetrahydro-2-methyl-3-(methylsulfonyl)-5H-cyclopentafblpyridin-5-one], the melting point was in the range of 218 to 220 °C.

In turn, `O=C1CCC2=C1C(c1ccc(Br)cc1)C1=C(CCS1(=O)=O)N2` (stereo not drawn) [Example 78] displayed a melting point of 253 to 256 °C.

In turn, `O=C1CCCC2=C1C(c1ccc(F)c(I)c1)C1=C(CCS1(=O)=O)N2` (stereo not drawn) [Example 89, 9-(4-fluoro-3-iodophenyl)-2,3,5,6,7,9-hexahydrothieno [3.2-b]quinolin-8(4H)-one, 1,1-dioxide] gave a melting point greater than 250 °C.

Compound `O=C1CCC2=C1C(c1ccc(Cl)c(Cl)c1)C1=C(CCS1(=O)=O)N2` (single isomer, unassigned) [Example 145] registered a melting point greater than 250 °C.

In turn, `O=C1CCCC2=C1C(c1ccc(Cl)c(C(F)(F)F)c1)C1=C(CCS1(=O)=O)N2` (stereo not drawn) [Example 151, 9-[4-chloro-3-(trifluoromethyl)phenyl]-2,3,5,6,7,9-hexahydrothieno [32-b]quinolin-8(4H)-one, 1,1-dioxide] showed a melting point greater than 250 °C.

`O=C1CCC2=C1C(c1cccc(Br)c1)C1=C(CCS1(=O)=O)N2` (stereo not drawn) [Example 64, 8-(3-bromophenyl)-2,3,4,5,6,8-hexahydro-7H-cyclopenta[b]thieno [2,3-e]pyridin-7-one, 1,1-dioxide] showed a melting point of 246 °C.

Turning to `CC1=C(S(C)(=O)=O)C(c2ccc(Cl)c([N+](=O)[O-])c2)C2=C(CCC2=O)N1` (stereo not drawn) [Example 76, 4-(4-chloro-3-nitrophenyl)-1,4,6,7-tetrahydro-2-methyl-3-,(methylsulfonyl)-5H-cyclopenta[b]pyridin-5-one], the melting point worked out at 232 °C.

Broadly, the Emax is the maximal effect, on the per cent scale that the assay sets. As to `O=C1CCCC2=C1C(c1ccc(F)c(Cl)c1)C1=C(CCCS1(=O)=O)N2` (stereo not drawn) [Example 3, 10-(3-chloro-4-fluorophenyl)-3,4,6,7,8,10-hexahydro-2H-thiopyrano [3,2-b]quinolin-9(5H)-one, 1,1-dioxide], at potassium channels, the “Landrace Pig Bladder Index” value is 0.11 and the “Landrace Pig Bladder pD2” value amounted to 6.0. On potassium channels (setting [1]), the Emax is 85%.

With `O=C1CCCC2=C1C(c1ccc3nonc3c1)C1=C(CCS1(=O)=O)N2` (single isomer, unassigned; (-)) [Example 98, (−)-9-(2.1 .3-benzoxadiazol-5-yl)-2,3.5,6.7,9-hexahydrothieno[3.2-b]guinolin-8(4H)-one, 1,1-dioxide], on potassium channels, the “Landrace Pig Bladder Index” value is 0.057 and the “Landrace Pig Bladder pD2” value was 5.6. Besides, the “Landrace Pig Bladder Efficacy (% P1075)” value at potassium channels (setting [1]) worked out at 100 % P1075.

As to `O=C1CCCC2=C1C(c1cccc([N+](=O)[O-])c1)C1=C(CCCS1(=O)=O)N2` (stereo not drawn) [Example 1, 3,4,6,7,8,10-hexahydro-10-(3-nitrophenyl)-2H-thiopyrano[3,2-b]quinolin-9(5H)-one, 1,1-dioxide], on potassium channels, the “Landrace Pig Bladder Index” value came out at 0.022 and the “Landrace Pig Bladder pD2” value came out at 5.5. The compound also had an Emax on potassium channels (setting [1]) of 100%.

For the compound `O=C1CCCC2=C1C(c1ccc(F)c(-c3ccco3)c1)C1=C(CCS1(=O)=O)N2` (single isomer, unassigned) [Example 165, 9-[4-fluoro-3-(2-fMrIl)phenyl]-2,3,5,6,7,9-hexahydrothieno[3,2-b]quinolin-8(4H)-one, 1,1-dioxide], at potassium channels, the “Landrace Pig Bladder Index” value came to 0.035 and the “Landrace Pig Bladder pD2” value turned out to be 5.8. This compound came in with an Emax on potassium channels (setting [1]) of 94%.

As to `CC1=C(S(C)(=O)=O)C(c2cccc([N+](=O)[O-])c2)C2=C(CCCC2=O)N1` (stereo not drawn) [Example 26, 4,6,7,8-tetrahydro-2-methyl-3-(methylsulfonyl)-4-(3-nitrophenyl)-5(1H)-quinolinone], on potassium channels, the “Landrace Pig Bladder Index” value amounted to 0.0099 and the “Landrace Pig Bladder pD2” value amounted to 4.5. Moreover, at potassium channels (setting [1]), the Emax worked out at 78%.

As for `O=C1CCC2=C1C(c1ccc(Cl)c([N+](=O)[O-])c1)C1=C(CCCS1(=O)=O)N2` (stereo not drawn) [Example 38, 9-(4-chloro-3-nitrophenyl)-3,4,5,6,7,9-hexahydrocyclopenta[b]thiopyrano [2.3-e]pyridin-8(2H)-one, 1,1-dioxide], on potassium channels, the “Landrace Pig Bladder Index” value stood at 0.14 and the “Landrace Pig Bladder pD2” value worked out at 6.2. Moreover, at potassium channels (setting [1]), the Emax came to 98%.

For the origin of these results see patent publication US6593335B1, “Potassium channel openers” (Abbott Laboratories, priority 1997, dated 2003).
